pIC50, pKd: −log10 of the molar value. The source made the active and inactive calls. The rule behind the calls is not given here.

In assay [1] the target is T1, Insulin-like growth factor 2 mRNA-binding protein 1 (Homo sapiens, UniProt Q9NZI8). Put plainly: Inhibition of human IGF2BP1 transfected in RKO cells incubated for 24 hrs by split-luciferase assay. The class given is cell-based.
Assay [2] has as its system NCI-H1299. Put plainly: Inhibition of wound healing in human NCI-H1299 cells by IncuCyte live-cell imaging analysis. In kind it is functional, cell-based.
Assay [3] has as its system NCI-H1299. Put plainly: Inhibition of wound healing in human NCI-H1299 cells at 1.25 to 5 uM by IncuCyte live-cell imaging analysis. In kind it is functional, cell-based. Conditions: dose 1.25-5 µM.
The subject of assay [4] is LKR-M cell. As to the kind of experiment: Inhibition of wound healing in mouse LKR-M cells transfected with IGF2BP1 at 5 uM by IncuCyte live-cell imaging analysis. In kind it is functional, cell-based.
Assay [5] concerns LKR-M cell. As to the kind of experiment: Inhibition of wound healing in mouse LKR-M cells transfected with GFP at 5 uM by IncuCyte live-cell imaging analysis. The class given is functional, cell-based.
For assay [6], the target named is T1, Insulin-like growth factor 2 mRNA-binding protein 1. As to the kind of experiment: Binding affinity to recombinant full-length human IGF2BP1 KH34 domain by MST assay.
Assay [7] deals with LKR-M cell. As to the kind of experiment: Antiproliferative activity against mouse LKR-M cells transfected with GFP-IGF2BP1. The class given is functional, cell-based.
Assay [8] concerns LKR-M cell. Put plainly: Antiproliferative activity against mouse LKR-M cells transfected with GFP. The class given is functional, cell-based.
In assay [9] the test system is LKR-M cell. Put plainly: Antiproliferative activity against mouse LKR-M cells transfected with GFP-IGF2BP1 at 1.25 uM. The class given is functional, cell-based.
Assay [10] concerns NCI-H1299. Put plainly: Antiproliferative activity against human NCI-H1299 cells. The class given is functional, cell-based.
The subject of assay [11] is NCI-H1299. As to the kind of experiment: Antiproliferative activity against human NCI-H1299 cells at 1.25 to 5 uM. The class given is functional, cell-based. To be noted: dose 1.25-5 µM.
Assay [12] deals with HCT-116. Put plainly: Induction of apoptosis in human HCT-116 cells. The class given is functional, cell-based. Conditions: dose 2-4 µM.
For assay [13], the system named is SW480. Put plainly: Induction of apoptosis in human SW480 cells. The class given is functional, cell-based. To be noted: dose 2-4 µM.
Assay [14] concerns RKO. As to the kind of experiment: Induction of apoptosis in human RKO cells. In kind it is functional, cell-based.
In assay [15] the test system is HCT-116. As to the kind of experiment: Antiproliferative activity against human HCT-116 cells. In kind it is functional, cell-based.
For assay [16], the system named is SW480. Put plainly: Inhibition of cell migration in human SW480 cells at 2 uM. In kind it is functional, cell-based.
Assay [17] deals with SW480. Put plainly: Inhibition of cell migration in IGF2BP1 knockout human SW480 cells at 2 uM. In kind it is functional, cell-based.

T1 sequence (Q9NZI8 whole entry): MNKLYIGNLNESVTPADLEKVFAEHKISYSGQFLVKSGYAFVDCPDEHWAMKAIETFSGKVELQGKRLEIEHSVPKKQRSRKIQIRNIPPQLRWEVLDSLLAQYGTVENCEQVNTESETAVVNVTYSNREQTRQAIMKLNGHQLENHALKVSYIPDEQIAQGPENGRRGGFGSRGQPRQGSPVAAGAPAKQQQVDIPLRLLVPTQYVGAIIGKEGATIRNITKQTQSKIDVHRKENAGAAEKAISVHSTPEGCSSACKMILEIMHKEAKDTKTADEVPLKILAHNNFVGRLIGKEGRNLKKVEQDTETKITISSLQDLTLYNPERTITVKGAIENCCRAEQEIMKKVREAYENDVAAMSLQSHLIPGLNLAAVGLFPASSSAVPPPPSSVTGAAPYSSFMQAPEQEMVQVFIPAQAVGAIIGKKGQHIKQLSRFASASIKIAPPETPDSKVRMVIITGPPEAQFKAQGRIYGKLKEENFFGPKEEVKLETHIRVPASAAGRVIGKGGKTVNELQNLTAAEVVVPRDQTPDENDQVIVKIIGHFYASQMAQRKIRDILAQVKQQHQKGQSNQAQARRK

On to `Cc1ccc(N2CCN(C(=O)c3ccc(CNC(N)=S)cc3)CC2)cc1`, for which the inhibition result in assay [1] is “inactive”.
Consider `Cc1ccc(N2CCN(C(=O)c3ccc(Cn4cnc([N+](=O)[O-])n4)cc3)CC2)cc1`, for which the pIC50 in [2] was 5.10. Further, the inhibition entry in [1] and in [3] was “Active” throughout.
Take `Cc1ccc(N2CCN(C(=O)c3ccc(C[Se]C#N)cc3)CC2)cc1`: the inhibition result in assay [1] is “inactive”.
`O=C(c1ccc(CN2CCCC2)cc1)N1CCN(c2ccc3c(c2)OCO3)CC1` gave a pIC50 in assay [2] of less than 4.00. The inhibition entry in [1] was “Active”.
For `O=C(c1ccc(Cn2cnc([N+](=O)[O-])n2)cc1)N1CCCC(Nc2ccc3c(c2)OCO3)C1` (centres undefined) the same measures were 4.70 and “Active”.
For `O=C(c1ccc(Cn2cnnn2)cc1)N1CCN(c2ccc3c(c2)OCO3)CC1`, in [1], the inhibition result was “inactive”.
Regarding `O=C(c1ccc(Cn2cc(CO)c3ccccc32)cc1)N1CCN(c2ccc3c(c2)OCO3)CC1`, in assay [2], the pIC50 was 6.15. Moreover, the inhibition entry in [3], in assay [4] and in [16] was “Active” each time. The inhibition entry in assay [5] and in assay [17] was “inactive” throughout. In assay [6], the pKd is 6.08. In addition, the Activity result in assay [7], in [10], in assay [12], in assay [13] and in assay [15] was “Dose-Dependent Effect” throughout. Besides, the result in assay [8] and in [14] was inactive. Moreover, the result in [9] and in assay [11] was Active.
In assay [2], `Cc1ccc(N2CCN(C(=O)c3ccc(Cn4cc(CO)c5ccccc54)cc3)CC2)cc1` gave a pIC50 of 5.60. Moreover, the inhibition entry in [1] and in assay [3] was “Active” throughout.
In assay [2], `O=C(c1ccc(CN2CCOCC2)cc1)N1CCN(c2ccc3c(c2)OCO3)CC1` gave a pIC50 of less than 4.00. The inhibition result in [1] was “Active”.
`N#C[Se]Cc1ccc(C(=O)N2CCN(c3ccc4c(c3)OCO4)CC2)cc1`: in assay [1], the inhibition result is “inactive”.
The same measure, in the same setting: the entry for `Cc1ccc(N2CCN(C(=O)c3ccc(CN4CCOCC4)cc3)CC2)cc1` is “inactive”; for `Cc1ccc(N2CCN(C(=O)c3ccc(Cn4cnnn4)cc3)CC2)cc1` it is “inactive”.
Regarding `O=C(c1ccc(Cn2cnnn2)cc1)N1CCCC(Nc2ccc3c(c2)OCO3)C1` (centres undefined), the pIC50 in assay [2] is 5.00. The inhibition result in [1] was “Active”.
In the case of `O=C(c1ccc(Cn2ccnc2)cc1)N1CCCC(Nc2ccc3c(c2)OCO3)C1` (centres undefined), the inhibition entry in [1] was “Active”.
As for `O=C(c1ccc(Cn2cnc([N+](=O)[O-])n2)cc1)N1CCN(c2ccc3c(c2)OCO3)CC1`, the inhibition entry in assay [1] was “inactive”.
The compound `N#C[Se]Cc1ccc(C(=O)N2CCCC(Nc3ccc4c(c3)OCO4)C2)cc1` (centres undefined) gave a pIC50 in [2] of 5.00. In addition, the inhibition result in assay [1] and in assay [3] was “Active” throughout.
Take `O=C(c1ccc(CN2CCCC2)cc1)N1CCCC(Nc2ccc3c(c2)OCO3)C1` (centres undefined): the inhibition result in assay [1] is “Active”.
Same read-out and setting: the same measure for `Cc1ccc(N2CCN(C(=O)c3ccc(Cn4ccnc4)cc3)CC2)cc1`: “inactive”; for `O=C(c1ccc(Cn2cncn2)cc1)N1CCN(c2ccc3c(c2)OCO3)CC1`: “inactive”.
The same measure, in the same setting: the entry for `Cc1ccc(N2CCN(C(=O)c3ccc(Cn4cncn4)cc3)CC2)cc1` is “inactive”.
For the compound `NC(=S)NCc1ccc(C(=O)N2CCN(c3ccc4c(c3)OCO4)CC2)cc1`, in assay [2], the pIC50 was 5.35. Besides, the inhibition result in assay [1] and in assay [3] was “Active” each time.
In the case of `Cc1ccc(N2CCN(C(=O)c3ccc(CN4CCCC4)cc3)CC2)cc1`, the inhibition result in assay [1] is “inactive”.
Take `O=C(c1ccc(CN2CCOCC2)cc1)N1CCCC(Nc2ccc3c(c2)OCO3)C1` (centres undefined): the inhibition entry in assay [1] is “Active”.
For the compound `NC(=S)NCc1ccc(C(=O)N2CCCC(Nc3ccc4c(c3)OCO4)C2)cc1` (centres undefined), the pIC50 in assay [2] is 4.52. In addition, in assay [1], the inhibition result was “Active”.
As for `O=C(c1ccc(Cn2cncn2)cc1)N1CCCC(Nc2ccc3c(c2)OCO3)C1` (centres undefined), the inhibition entry in assay [1] is “Active”.
Consider `O=C(c1ccc(Cn2ccnc2)cc1)N1CCN(c2ccc3c(c2)OCO3)CC1`, for which the inhibition entry in assay [1] is “inactive”.

The values are drawn from ChEMBL document CHEMBL5532648, “Development of a specific and potent IGF2BP1 inhibitor: A promising therapeutic agent for IGF2BP1-expressing cancers” (Eur J Med Chem, 2024).
